Data: US20060204547A1, “Drug delivery stent with extended in vivo release of anti-inflammatory” (Conor Medsystems, Inc., priority 2005, published 2006)

Test: in vivo Pimecrolimus release from stent implanted in porcine model, residual drug load by HPLC
Conditions: PLGA matrix reservoir stent, FIG. 4, porcine
Text: In the example of FIG. 4, a stent is cut from a cobalt chromium alloy according to the pattern shown in FIGS. 1 and 2 and Pimecrolimus is loaded in a PLGA matrix within reservoirs in the stent. The drug and matrix are arranged for directional delivery of the drug primarily to the mural side of the stent. The in vivo drug release rate is programmed by providing different concentrations of drug in different regions of the matrix similar to the regions shown in FIG. 3, with a luminal region 50 of primarily PLGA, a middle region 60 of about 75% Pimecrolimus and about 25% PLGA, and a mural region 70 of about 95% Pimecrolimus and about 5% PLGA. The reservoirs are filled, by volume, with about 20-25% base or luminal region, 40-45% middle region, and 25-30% mural region. The in vivo drug releases described herein are normalized for a 3.0 mm diameter×16 mm long expanded stent which has almost 500 reservoirs and a total drug volume of about 0.54 mm^3.
The measurement of in vivo Pimecrolimus release from a stent can be performed according to the following Example. The in vivo release from other implantable medical devices can be performed in a similar manner by removal of tissue and measurement of total drug load and release kinetics by high pressure liquid chromatography (HPLC).
Stents are implanted in a porcine model and explanted at selected time points by removing the entire artery section. The expanded stents are labeled and frozen. The tissue is removed from the stent by slicing the tissue on the outside of the stent lengthwise, inverting the tissue, and removing the tissue by cutting and turning the tissue inside out. The stent may still be covered by a tough elastic membrane which is then removed by splitting the membrane and peeling it off the stent. For longer time points, there will also be a tube of tissue inside the stent. This tube is separated from the stent with tweezers, turned inside out and pulled out of the stent.
The following is the test procedure for generating the in vivo release curves for Pimecrolimus in FIG. 4.
The total drug load (TDL) of Pimecrolimus from a stent is determined by extracting all the polymer and drug from the stent in the solvent acetonitrile. The amount of Pimecrolimus in a solution sample is determined by High Pressure Liquid Chromatography (HPLC). The following conditions are used:
The in vivo release kinetic (RK) for Pimecrolimus from a stent is determined by running the TDL for multiple explanted time points. The TDL for the explanted samples is subtracted from the TDL of an unimplanted stent to determine the amount of Pimecrolimus released at each of the explanted time points.

For `CC[C@@H]1/C=C(\C)C[C@H](C)C[C@H](OC)[C@H]2O[C@@](O)(C(=O)C(=O)N3CCCC[C@H]3C(=O)O[C@H](/C(C)=C/[C@@H]3CC[C@H](Cl)[C@H](OC)C3)[C@H](C)[C@@H](O)CC1=O)[C@H](C)C[C@@H]2OC` [Pimecrolimus], the “in vivo cumulative release, percent of total Pimecrolimus loaded on stent” value (“in vivo cumulative release, percent” for short) (4 hour) was “about 10%”, the “in vivo cumulative release, percent” value (24 hour) was “about 25%” and the “in vivo cumulative release, percent” value (2 day) was “about 40%”. For the same compound, the “in vivo cumulative release, percent” value (8 day) was “about 50%”, the “in vivo cumulative release, percent” value (30 day) was “about 70%” and the “in vivo cumulative release, percent” value (50 day) was “about 70%”.
